Paper PMC10579715 (Plant Biotechnology Journal, 2023)

Test system: LmUGT73P1
Experiment: LC-QTOF-MS/MS rhamnosyltransferase assay, Michaelis-Menten plot
Type: biochemical, Lonicera macranthoides
Details: 10 mM UDP-Rha, 50 mM Tris-HCl pH 7.5, 37 °C, 20 min

With `CC1(C)CC[C@]2(C(=O)O)CC[C@]3(C)C(=CC[C@@H]4[C@@]5(C)CC[C@H](O[C@@H]6OC[C@H](O)[C@H](O)[C@H]6O)[C@@](C)(CO)[C@@H]5CC[C@]43C)[C@@H]2C1` [cauloside A] the Km was 33 µM.
